The record followed here is ChEMBL document CHEMBL1201862, “PubChem BioAssay data set” (2004).

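These data come from cells grown in 96-well plates and exposed to compound for 48 hours at five concentrations. GI50 is the concentration that inhibits growth by half.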 The source made the active and inactive calls. Rule as the data show it: active = GI50 up to about 1.1 µM and inactive = higher.

Test systems include A498; BT-549; CCRF-CEM; HCT-116; HCT-15; HOP-92; IGROV-1; M14; MDA-MB-435; NCI-H460; OVCAR-3; OVCAR-5; OVCAR-8; SK-OV-3; SNB-75; SW-620; UACC-257; UO-31; MDA-N.
Experiment in all cases: NCI-60 cell line screen, 48 h

Consider `CC(C)(C)c1cc(C(=O)/C=C/c2cc[nH]n2)cc(C(C)(C)C)c1O`, for which the GI50 was 2.17 µM (inactive) with A498; 4.83 µM (inactive) with BT-549; 2.07 µM (inactive) in the experiment on CCRF-CEM; 2.43 µM (inactive) in the experiment with HCT-116; 2.11 µM in the experiment with HCT-15; 2.21 µM (inactive) in the experiment with HOP-92. In addition, the GI50 in the experiment on IGROV-1 is 1.93 µM (inactive); in the experiment on M14, 1.82 µM (inactive); in the experiment with MDA-MB-435, 2.77 µM (inactive); with NCI-H460, 3.72 µM (inactive); with OVCAR-3, 2.75 µM (inactive); with OVCAR-5 it was 5.37 µM (inactive). Further, the GI50 in the experiment with OVCAR-8 was 2.39 µM (inactive); in the experiment on SK-OV-3 it was 15.7 µM (inactive); in the experiment on SNB-75 it was 4.61 µM (inactive); in the experiment on SW-620 it was 2.33 µM (inactive); with UACC-257, 3.24 µM (inactive); in the experiment on UO-31, 1.76 µM (inactive).

Regarding `O=[N+]([O-])c1ccc(/C=C(/c2ccc([N+](=O)[O-])o2)S(=O)(=O)c2ccccc2)o1`, the GI50 was 19.9 µM (inactive) in the experiment with BT-549; 1.71 µM (inactive) with HCT-116; 11.6 µM in the experiment on HCT-15; 12 µM (inactive) in the experiment with HOP-92; 16.6 µM (inactive) in the experiment on IGROV-1; 11.1 µM (inactive) with M14. The GI50 is 15.2 µM (inactive) in the experiment on MDA-MB-435; 21.2 µM (inactive) in the experiment with NCI-H460; 6.14 µM (inactive) in the experiment with OVCAR-3; 18.6 µM (inactive) with OVCAR-5; 4.49 µM (inactive) in the experiment on OVCAR-8; 29.4 µM (inactive) in the experiment with SK-OV-3. For the same molecule, the GI50 with SNB-75 is 19 µM (inactive); in the experiment on SW-620, 2.26 µM (inactive); in the experiment on UACC-257, 1.84 µM (inactive); in the experiment with UO-31, 4.34 µM (inactive).

Regarding `NNc1nncn1N`, the GI50 was > 100 µM (inactive) in the experiment on A498; > 100 µM (inactive) with BT-549; 1.25 µM (inactive) with CCRF-CEM; > 100 µM (inactive) in the experiment with HCT-116; over 100 µM with HCT-15; > 100 µM (inactive) with HOP-92. Moreover, the GI50 in the experiment on IGROV-1 was > 100 µM (inactive); in the experiment on M14 it was > 100 µM (inactive); in the experiment with MDA-MB-435, 19.2 µM (inactive); in the experiment on NCI-H460, > 100 µM (inactive); in the experiment on OVCAR-3 it was > 49.7 µM (inactive); in the experiment on OVCAR-5 it was > 100 µM (inactive). Moreover, the GI50 was > 96.6 µM (inactive) with OVCAR-8; > 100 µM (inactive) in the experiment on SK-OV-3; > 100 µM (inactive) in the experiment with SNB-75; > 57.1 µM (inactive) in the experiment with SW-620; > 100 µM (inactive) in the experiment with UACC-257; 84.1 µM (inactive) in the experiment on UO-31.

With `N#CC(C#N)=C/C=C(\Sc1c(Cl)c(Cl)nc(Cl)c1Cl)c1ccc(Cl)cc1`, the GI50 in the experiment on CCRF-CEM was 4.74 µM (inactive); in the experiment with HCT-116 it was 10.2 µM (inactive); in the experiment on HCT-15, 12.9 µM; with HOP-92, 26.5 µM (inactive); with IGROV-1, 18.7 µM (inactive); with M14, 19.5 µM (inactive). Further, the GI50 is 5.4 µM (inactive) in the experiment with MDA-MB-435; 26.4 µM (inactive) in the experiment on NCI-H460; 11.6 µM (inactive) in the experiment on OVCAR-3; 21.5 µM (inactive) in the experiment on OVCAR-5; 5.05 µM (inactive) in the experiment on OVCAR-8; 24.4 µM (inactive) in the experiment on SK-OV-3. Also, the GI50 is 20.1 µM (inactive) in the experiment on SNB-75, 5.77 µM (inactive) with SW-620, 14.8 µM (inactive) in the experiment with UACC-257 and 29.8 µM (inactive) with UO-31.

As for `CCc1n[nH]c(=O)n1/N=C(\C)c1ccc([N+](=O)[O-])cc1`, the GI50 in the experiment with BT-549 was > 100 µM (inactive); in the experiment on CCRF-CEM, > 100 µM (inactive); with HCT-116 it was > 100 µM (inactive); in the experiment on HCT-15, over 100 µM; in the experiment with HOP-92 it was > 100 µM (inactive); with IGROV-1, 82.6 µM (inactive). For the same molecule, the GI50 with M14 was > 100 µM (inactive); with MDA-MB-435, 59.7 µM (inactive); in the experiment on MDA-N it was > 100 µM (inactive); in the experiment on NCI-H460, 46.2 µM (inactive); in the experiment with OVCAR-3, > 100 µM (inactive); in the experiment on OVCAR-5, > 100 µM (inactive). Besides, the GI50 is > 100 µM (inactive) in the experiment with OVCAR-8, 94.2 µM (inactive) in the experiment on SW-620, > 100 µM (inactive) in the experiment on UACC-257 and > 100 µM (inactive) in the experiment with UO-31.

Regarding `COCN1C(=O)[C@@H]2CCCN2C(=O)c2ccc([N+](=O)[O-])cc21`, the GI50 is > 100 µM (inactive) with A498; > 100 µM (inactive) in the experiment with BT-549; > 100 µM (inactive) in the experiment with CCRF-CEM; > 100 µM (inactive) with HCT-116; over 100 µM with HCT-15; > 100 µM (inactive) in the experiment on HOP-92. Also, the GI50 with IGROV-1, with M14, in the experiment with MDA-MB-435, in the experiment with NCI-H460, in the experiment with OVCAR-3 and in the experiment with OVCAR-5 was > 100 µM (inactive) throughout. The GI50 in the experiment on OVCAR-8, with SK-OV-3, in the experiment with SNB-75, with SW-620, in the experiment on UACC-257 and in the experiment on UO-31 was > 100 µM (inactive) in each case.

Regarding `CC(=O)C(=C(c1ccccc1)c1ccccc1)c1ccccc1`, the GI50 with BT-549 was > 100 µM (inactive); in the experiment on CCRF-CEM it was 40.7 µM (inactive); in the experiment with HCT-116 it was > 100 µM (inactive); in the experiment with HCT-15, 86.7 µM; with HOP-92, > 100 µM (inactive); with M14, > 100 µM (inactive). The GI50 with MDA-MB-435, in the experiment with MDA-N, with NCI-H460, in the experiment with OVCAR-3, in the experiment on OVCAR-5 and with OVCAR-8 was > 100 µM (inactive) throughout. Moreover, the GI50 with SK-OV-3 was > 100 µM (inactive); in the experiment with SNB-75, 87.7 µM (inactive); with SW-620, > 100 µM (inactive); in the experiment on UACC-257, > 100 µM (inactive); with UO-31, > 100 µM (inactive).

For the molecule `O=C1NN(Cc2ccccc2)C(=O)N2CCC[C@@H]12`, the GI50 in the experiment with A498 was > 100 µM (inactive); with CCRF-CEM, > 100 µM (inactive); in the experiment on HCT-116, > 100 µM (inactive); with HCT-15, over 100 µM; in the experiment on HOP-92, > 100 µM (inactive); in the experiment with IGROV-1, > 100 µM (inactive). Besides, the GI50 in the experiment with M14, in the experiment on MDA-MB-435, in the experiment with MDA-N, with NCI-H460, in the experiment with OVCAR-3 and in the experiment on OVCAR-5 was > 100 µM (inactive) in each case. Further, the GI50 was > 100 µM (inactive) in the experiment with OVCAR-8; > 100 µM (inactive) with SK-OV-3; 0.0179 µM (active) in the experiment on SNB-75; > 100 µM (inactive) with SW-620; > 100 µM (inactive) in the experiment on UACC-257.

`O=c1[nH]c2ccc(O)cc2o1`: the GI50 in the experiment on A498 is > 100 µM (inactive); with BT-549, > 100 µM (inactive); with CCRF-CEM it was > 100 µM (inactive); with HCT-116 it was > 100 µM (inactive); with HCT-15 it was over 100 µM; in the experiment with IGROV-1 it was > 100 µM (inactive). The GI50 in the experiment with M14, in the experiment on MDA-N, with NCI-H460, with OVCAR-3, in the experiment on OVCAR-5 and with OVCAR-8 was > 100 µM (inactive) each time. Also, the GI50 in the experiment with SK-OV-3 is > 100 µM (inactive); with SNB-75 it was 42.7 µM (inactive); with SW-620, > 100 µM (inactive); in the experiment on UACC-257 it was > 100 µM (inactive); in the experiment with UO-31, > 100 µM (inactive).

Turning to `COC(CN(C)C(=S)Nc1cccc2ccccc12)OC`, the GI50 in the experiment on A498 was > 10 µM (inactive); in the experiment with CCRF-CEM, > 10 µM (inactive); in the experiment with HCT-116, > 10 µM (inactive); in the experiment with HCT-15 it was over 10 µM; in the experiment on IGROV-1, > 10 µM (inactive); with M14 it was > 10 µM (inactive). For the same molecule, the GI50 with MDA-MB-435, with MDA-N, with NCI-H460, in the experiment with OVCAR-3, in the experiment with OVCAR-8 and in the experiment on SK-OV-3 was > 10 µM (inactive) in each case. The GI50 with SNB-75, with SW-620, in the experiment with UACC-257 and in the experiment with UO-31 was > 10 µM (inactive) in each case.

For the molecule `O=c1c2c(-c3ccccc3)c3ccccc3nc2cnn1-c1ccccc1`, the GI50 is > 100 µM (inactive) in the experiment with A498; 81.7 µM (inactive) in the experiment with CCRF-CEM; > 100 µM (inactive) in the experiment on HCT-116; over 100 µM in the experiment with HCT-15; > 100 µM (inactive) in the experiment with HOP-92; > 100 µM (inactive) with IGROV-1. For the same molecule, the GI50 in the experiment with M14 is > 100 µM (inactive); in the experiment with NCI-H460, > 100 µM (inactive); with OVCAR-3, 55.5 µM (inactive); in the experiment on OVCAR-5 it was > 100 µM (inactive); in the experiment with OVCAR-8 it was > 100 µM (inactive); in the experiment with SK-OV-3 it was > 100 µM (inactive). Also, the GI50 with SNB-75 was > 100 µM (inactive); with SW-620, 91.4 µM (inactive); in the experiment on UACC-257 it was > 100 µM (inactive); in the experiment on UO-31 it was > 100 µM (inactive).

For the molecule `COc1ccc(CC2C3=C(CCCC3)CCN2C)cc1` (configuration not stated), the GI50 with A498 is > 100 µM (inactive); in the experiment with CCRF-CEM, > 100 µM (inactive); in the experiment with HCT-116, 58.2 µM (inactive); in the experiment on HCT-15 it was over 100 µM; in the experiment on IGROV-1, > 100 µM (inactive); with M14 it was 44.4 µM (inactive). The GI50 in the experiment with MDA-MB-435, in the experiment with MDA-N, with NCI-H460, with OVCAR-3, in the experiment on OVCAR-5 and with OVCAR-8 was > 100 µM (inactive) each time. Further, the GI50 in the experiment on SK-OV-3 is > 100 µM (inactive); with SNB-75, 55.2 µM (inactive); with SW-620, > 100 µM (inactive); in the experiment with UACC-257, > 100 µM (inactive); with UO-31, 58.3 µM (inactive).
